Measured values from paper PMC3500442 (ACS Chemical Biology, 2012).

Target: T1, MJ0408 (MptD, archaeal DHNA) (Methanocaldococcus jannaschii, UniProt Q57851)
T1 sequence (Q57851 1-121): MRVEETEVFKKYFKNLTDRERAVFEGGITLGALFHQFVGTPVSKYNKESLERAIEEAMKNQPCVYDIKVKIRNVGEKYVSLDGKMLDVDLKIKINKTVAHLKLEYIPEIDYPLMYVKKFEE
Experiment: HPLC fluorescence after iodine oxidation
Type: biochemical
Conditions: 110 uM H2Neo, 8 mM MgCl2, 16 mM DTT, TES/KCl pH 7.4, 70 °C, argon

| Structure (SMILES) | HPLC fluorescence after iodine oxidation |
| --- | --- |
| Nc1nc2c(c(=O)[nH]1)N=C(CO)CN2 [6-HMD, 6-hydroxymethyl-7,8-dihydropterin] | it was found to catalyze the formation of 6-HMD from H2Neo |
| Nc1nc2c(c(=O)[nH]1)N=C([C@H](O)[C@H](O)CO)CN2 [H2Neo, 7,8-dihydroneopterin] | it was found to catalyze the formation of 6-HMD from H2Neo |
